Consider 28 molecules from patent US11319303B2 (WIGEN BIOMEDICINE TECHNOLOGY (SHANGHAI) CO., LTD., priority 2017, dated 2022).

Structures can show the parent of a compound that is named as a salt.

This assay has as its target LC3B (Homo sapiens, UniProt Q9GZQ8). Kind of assay: Fluorescence Polarization (FP) Assay: displacement of FITC-labeled peptide from GST-LC3B. Format: binding. The conditions noted are these: Fluorescence Polarization assay; GST-LC3B 180 nM, FITC-labeled peptide 18 nM, 25° C.; read-out: IC50. On the procedure: The compounds of the present invention for regulating the autophagy-related protein LC3B were tested by Fluorescence Polarization (FP) Assay.
Fluorescence Polarization (FP) Assay Test
In the case of `O=C1CN(c2ccccc2)CC(=O)C1=CNCCN1CCN(CCO)CC1` [Compound 97, 4-(((2-(4-(2-hydroxyethyl)piperazin-1-yl)ethyl)amino)methylene)-1-phenylpiperidine-3,5-dione], the IC50 is 15 to 100 µM. In the case of `CC(F)(F)c1ccccc1C1CC(=O)C(=CNCCN2CCN(CCO)CC2)C(=O)C1` (stereo not shown) [Compound 404, 5-(2-(1,1-difluoroethyl)phenyl)-2-(((2-(4-(2-ethoxyl)piperazin-1-yl)ethyl)amino)methylene) cyclohexane-1,3-dione], the half-inhibitory concentration (IC50) was less than 3 µM. As for `O=C1CC(c2ccccc2)CC(=O)C1=CNc1cccnc1` (stereo not shown) [Compound 7, 5-phenyl-2-((pyridin-3-ylamino)methylene) cyclohexane-1,3-dione], the figure is 3 to 15 µM.

Regarding `CN(C)C=C1C(=O)CC(c2ccnc3ccccc23)CC1=O` (stereo not shown) [Compound 285, 2-((dimethylamino)methylene)-5-(quinolin-4-yl)cyclohexane-1,3-dione], the IC50 was in the range of 3 to 15 µM.

For `CN(C)C=C1C(=O)CC(c2cccs2)CC1=O` (stereo not shown) [Compound 264, 2-((dimethylamino)methylene)-5-(thiophen-2-yl)cyclohexane-1,3-dione], the IC50 is less than 3 µM.

Regarding `Cc1ccc(NC(=O)C2CC(=O)C(=CNCCN(C)C)C(=O)C2)cc1F` (stereo not shown) [Compound 380, 4-(((2-(dimethylamino)ethyl)amino)methylene)-N-(3-fluoro-4-methylphenyl)-3,5-dioxocyclohexane-1-carboxamide], the concentration for half-maximal inhibition (IC50) lay within 3 to 15 µM. As for `O=C1CC(C(F)(F)F)CC(=O)C1=CNCCN1CCN(CCO)CC1` (stereo not shown) [Compound 94, 2-(((2-(4-(2-hydroxyethyl)piperazin-1-yl)ethyl)amino)methylene)-5-(trifluoromethyl) cyclohexane-1,3-dione], the half-maximal inhibitory concentration (IC50) lay within 15 to 100 µM.

In the case of `O=C1CC(c2cccc3[nH]ccc23)CC(=O)C1=CO` (stereo not shown) [Compound 461, 2-(hydroxy-methylene)-5-(1H-indol-4-yl)cyclo-hexane-1,3-dione potassium salt], the IC50 was less than 3 µM. As for `CN(C)C=C1C(=O)CC(c2cccc3c2CCCC3)CC1=O` (stereo not shown) [Compound 280, 2-((dimethylamino)methylene)-5-(5,6,7,8-tetrahydro-naphthalen-1-yl)cyclohexane-1,3-dione], the figure is less than 3 µM. The figure for `CC(C)CC(=O)N1CCN(CCNC=C2C(=O)CC(c3ccccc3)CC2=O)CC1` (stereo not shown) [Compound 213, 2-(((2-(4-(3-methylbutanoyl)piperazin-1-yl)ethyl)amino)methylene)-5-phenylcyclohexane-1,3-dione] is less than 3 µM; for `Cc1cccc(CNC=C2C(=O)CC(c3ccccc3)CC2=O)n1` (stereo not shown) [Compound 203, 2-((((6-methylpyridin-2-yl)methyl)amino)methylene)-5-phenylcyclohexane-1,3-dione] it is 3 to 15 µM; for `CN(C)C=C1C(=O)CC(c2ccc(C(F)(F)F)cc2)CC1=O` (stereo not shown) [Compound 254, 2-((dimethylamino)methylene)-5-(4-(trifluoromethyl)phenyl) cyclohexane-1,3-dione] it is less than 3 µM.

Consider `Cc1ccc(C2CC(=O)C(=CNCCN3CCN(C(=O)N4CCOCC4)CC3)C(=O)C2)cc1` (stereo not shown) [Compound 226, 2-(((2-(4-(morpholine-4-carbonyl)piperazin-1-yl)ethyl)amino)methylene)-5-(p-tolyl) cyclohexane-1,3-dione], for which the half-inhibitory concentration (IC50) was less than 3 µM.

For `Cc1cccc2[nH]cc(C3CC(=O)C(=CN(C)C)C(=O)C3)c12` (stereo not shown) [Compound 298, 2-((dimethylamino)methylene)-5-(4-methyl-1H-indol-3-yl)cyclohexane-1,3-dione], the IC50 is less than 3 µM. `CN(C)C=C1C(=O)CC(c2ccc3ccccc3c2)CC1=O` (stereo not shown) [Compound 278, 2-((dimethylamino)methylene)-5-(naphthalen-2-yl)cyclohexane-1,3-dione]: the IC50 was less than 3 µM. For `CN(C)CCNC=C1C(=O)CC(c2c(F)cccc2Cl)CC1=O` (stereo not shown) [Compound 361, 5-(2-chloro-6-fluorophenyl)-2-(((2-(dimethylamino)ethyl)amino)methylene) cyclohexane-1,3-dione], the IC50 was less than 3 µM. The figure for `CN(C)C=C1C(=O)CC(c2cccc(C(F)(F)F)c2)CC1=O` (stereo not shown) [Compound 255, 2-((dimethylamino)methylene)-5-(3-(trifluoromethyl)phenyl) cyclohexane-1,3-dione] is less than 3 µM; for `CCOC(=O)C1C(=O)/C(=C\NCCN2CCN(CCO)CC2)C(=O)CC1c1ccccc1Br` (stereo not shown) [Compound 191, ethyl-6-(2-bromophenyl)-3-(((2-(4-(2-hydroxyethyl)piperazin-1-yl)ethyl)amino)methylene)-2,4-dioxocyclohexane-1-carboxylate] it is less than 3 µM. As for `CN(C)c1ccc(Br)c(C2CC(=O)C(=CNCCN3CCN(CCO)CC3)C(=O)C2)c1` (stereo not shown) [Compound 332, 5-(2-bromo-5-(dimethylamino)phenyl)-2-(((2-(4-(2-hydroxyethyl)piperazin-1-yl)ethyl)amino)methylene) cyclohexane-1,3-dione], the figure is less than 3 µM; as for `O=C1CC(=Cc2ccccc2)C(=O)C1=CNCCN1CCN(CCO)CC1` [Compound 407, 4-benzylidene-2-(((2-(4-(2-ethoxyl)piperazin-1-yl)ethyl)amino)methylene) cyclopentane-1,3-dione], 15 to 100 µM.

In the case of `CNCCNC=C1C(=O)CC(c2ccccc2)CC1=O` (stereo not shown) [Compound 164, 2-(((2-(methylamino)ethyl)amino)methylene)-5-phenylcyclohexane-1,3-dione hydrochloride], the IC50 is 3 to 15 µM. Take `CN(C)C=C1C(=O)CC(c2ccc3[nH]ccc3c2)CC1=O` (stereo not shown) [Compound 281, 2-((dimethylamino)methylene)-5-(1H-indol-5-yl)cyclohexane-1,3-dione]: the IC50 was less than 3 µM. Turning to `COCCN1c2ccccc2Sc2cc(C3CC(=O)C(=CNCCN4CCN(CCO)CC4)C(=O)C3)ccc21` (stereo not shown) [Compound 84, 2-(((2-(4-(2-hydroxyethyl)piperazin-1-yl)ethyl)amino)methylene)-5-(10-(2-methoxyethyl)-10H-phenothiazin-3-yl)cyclohexane-1,3-dione], the IC50 was in the range of 15 to 100 µM. On to `O=C1CC(c2ccccc2)CC(=O)C1=CO` (stereo not shown) [Compound 444, 2-(hydroxymethylene)-5-phenylcyclohexane-1,3-dione], for which the 50% inhibitory concentration (IC50) is 3 to 15 µM.

With `O=C1CC(c2ccccc2)CC(=O)C1=CNCCN1CCN(C(=O)Cc2ccccc2)CC1` (stereo not shown) [Compound 221, 5-phenyl-2-(((2-(4-(2-phenylacetyl)piperazin-1-yl)ethyl)amino)methylene) cyclohexane-1,3-dione], the 50% inhibitory concentration (IC50) is less than 3 µM. Regarding `CC(=O)OCC(=O)C1=C(O)CC(c2ccccc2)CC1=O` (stereo not shown) [Compound 111, 2-(5-hydroxy-3-oxo-1,2,3,6-tetrahydro-[1,1′ -biphenyl]-4-yl)-2-oxoethyl acetate], the IC50 is 100 to 1000 µM. Regarding `CCOC(=O)C(CS)NC=C1C(=O)CC(c2ccccc2)CC1=O` (stereo not shown) [Compound 169, ethyl ((2,6-dioxo-4-phenylcyclo-hexylidene)methyl) cysteinate], the IC50 is 3 to 15 µM. As for `C=CCNC=C1C(=O)CC(c2ccccc2)CC1=O` (stereo not shown) [Compound 143, 2-((allylamino)methylene)-5-phenylcyclo-hexane-1,3-dione], the figure is 15 to 100 µM.
